Reference: PubChem BioAssay (NCI)
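GI50: concentration for 50% inhibition of growth. TGI denotes the concentration required for complete inhibition of growth.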

What was measured:
Assay in all cases: NCI-60 cell line screen, 384-well format
A498 renal = system: A498 renal
A549 NSCLC = system: A549 NSCLC
ACHN renal = system: ACHN renal
BT-549 breast = system: BT-549 breast
CAKI-1 renal = system: CAKI-1 renal
CCRF-CEM leukemia = system: CCRF-CEM leukemia
DU-145 prostate = system: DU-145 prostate
EKVX NSCLC = system: EKVX NSCLC
HCC-2998 colon = system: HCC-2998 colon
HCT-116 colon = system: HCT-116 colon
HCT-15 colon = system: HCT-15 colon
HL-60(TB) leukemia = system: HL-60(TB) leukemia
HOP-62 NSCLC = system: HOP-62 NSCLC
IGROV1 ovarian = system: IGROV1 ovarian
K-562 leukemia = system: K-562 leukemia
KM12 colon = system: KM12 colon
LOX IMVI melanoma = system: LOX IMVI melanoma
M14 melanoma = system: M14 melanoma
MALME-3M melanoma = system: MALME-3M melanoma
MCF7 breast = system: MCF7 breast
MDA-MB-231 breast = system: MDA-MB-231 breast
MDA-MB-435 melanoma = system: MDA-MB-435 melanoma
MDA-MB-468 breast = system: MDA-MB-468 breast
MOLT-4 leukemia = system: MOLT-4 leukemia
NCI-H23 lung = system: NCI-H23 lung
NCI-H460 NSCLC = system: NCI-H460 NSCLC
NCI-H522 lung = system: NCI-H522 lung
NCI/ADR-RES ovarian = system: NCI/ADR-RES ovarian
OVCAR-3 ovarian = system: OVCAR-3 ovarian
OVCAR-5 ovarian = system: OVCAR-5 ovarian
OVCAR-8 ovarian = system: OVCAR-8 ovarian
PC-3 prostate = system: PC-3 prostate
RPMI-8226 leukemia = system: RPMI-8226 leukemia
RXF 393 renal = system: RXF 393 renal
SF-268 CNS = system: SF-268 CNS
SF-295 CNS = system: SF-295 CNS
SF-539 CNS = system: SF-539 CNS
SK-MEL-5 melanoma = system: SK-MEL-5 melanoma
SNB-75 CNS = system: SNB-75 CNS
SR leukemia = system: SR leukemia
SW-620 colon = system: SW-620 colon
T-47D breast = system: T-47D breast
TK-10 renal = system: TK-10 renal
U251 glioblastoma = system: U251 glioblastoma
UACC-257 melanoma = system: UACC-257 melanoma
UACC-62 melanoma = system: UACC-62 melanoma
UO-31 renal = system: UO-31 renal

Cc1ccc(S(=O)(=O)Cc2nc(-c3ccc(C(=O)NCc4cccnc4)cc3)oc2C)cc1
GI50 (A498 renal): 56.9 nM
TGI (A498 renal): 691 nM
GI50 (A549 NSCLC): 19.4 nM
TGI (A549 NSCLC): 41.9 nM
GI50 (ACHN renal): 12.5 nM
TGI (ACHN renal): 28.7 nM
GI50 (BT-549 breast): 17.9 nM
TGI (BT-549 breast): 32.7 nM
GI50 (CAKI-1 renal): < 10 nM
TGI (CAKI-1 renal): 15.5 nM
GI50 (CCRF-CEM leukemia): < 10 nM
TGI (CCRF-CEM leukemia): < 10 nM
GI50 (DU-145 prostate): 15.9 nM
TGI (DU-145 prostate): 30.8 nM
GI50 (EKVX NSCLC): < 10 nM
TGI (EKVX NSCLC): 25.1 nM
GI50 (HCC-2998 colon): < 10 nM
TGI (HCC-2998 colon): < 10 nM
GI50 (HCT-116 colon): < 10 nM
TGI (HCT-116 colon): < 10 nM
GI50 (HCT-15 colon): < 10 nM
TGI (HCT-15 colon): 16.3 nM
GI50 (HL-60(TB) leukemia): < 10 nM
TGI (HL-60(TB) leukemia): < 10 nM
GI50 (HOP-62 NSCLC): < 10 nM
TGI (HOP-62 NSCLC): 11.9 nM
GI50 (IGROV1 ovarian): 11.2 nM
TGI (IGROV1 ovarian): 23.7 nM
GI50 (K-562 leukemia): < 10 nM
TGI (K-562 leukemia): < 10 nM
GI50 (KM12 colon): < 10 nM
TGI (KM12 colon): 11.9 nM
GI50 (LOX IMVI melanoma): 17.1 nM
TGI (LOX IMVI melanoma): 78.7 nM
GI50 (M14 melanoma): < 10 nM
TGI (M14 melanoma): 16.9 nM
GI50 (MALME-3M melanoma): 19.1 nM
TGI (MALME-3M melanoma): 43.8 nM
GI50 (MCF7 breast): 14.2 nM
TGI (MCF7 breast): 29.1 nM
GI50 (MDA-MB-231 breast): 39.4 nM
TGI (MDA-MB-231 breast): 149 nM
GI50 (MDA-MB-435 melanoma): 13.2 nM
TGI (MDA-MB-435 melanoma): 26.1 nM
GI50 (MDA-MB-468 breast): 11.8 nM
TGI (MDA-MB-468 breast): 26.1 nM
GI50 (MOLT-4 leukemia): < 10 nM
TGI (MOLT-4 leukemia): < 10 nM
GI50 (NCI-H23 lung): < 10 nM
TGI (NCI-H23 lung): 20.2 nM
GI50 (NCI-H460 NSCLC): 21.6 nM
TGI (NCI-H460 NSCLC): 47.3 nM
GI50 (NCI-H522 lung): < 10 nM
TGI (NCI-H522 lung): < 10 nM
GI50 (NCI/ADR-RES ovarian): 15.2 nM
TGI (NCI/ADR-RES ovarian): 29.4 nM
GI50 (OVCAR-3 ovarian): < 10 nM
TGI (OVCAR-3 ovarian): < 10 nM
GI50 (OVCAR-5 ovarian): < 10 nM
TGI (OVCAR-5 ovarian): < 10 nM
GI50 (OVCAR-8 ovarian): < 10 nM
TGI (OVCAR-8 ovarian): < 10 nM
GI50 (PC-3 prostate): < 10 nM
TGI (PC-3 prostate): < 10 nM
GI50 (RPMI-8226 leukemia): < 10 nM
TGI (RPMI-8226 leukemia): < 10 nM
GI50 (RXF 393 renal): 16.9 nM
TGI (RXF 393 renal): 33.4 nM
GI50 (SF-268 CNS): < 10 nM
TGI (SF-268 CNS): 12.9 nM
GI50 (SF-295 CNS): 14.1 nM
TGI (SF-295 CNS): 28 nM
GI50 (SF-539 CNS): < 10 nM
TGI (SF-539 CNS): < 10 nM
GI50 (SK-MEL-5 melanoma): < 10 nM
TGI (SK-MEL-5 melanoma): 20.8 nM
GI50 (SNB-75 CNS): 23.9 nM
TGI (SNB-75 CNS): 53.2 nM
GI50 (SR leukemia): 18.1 nM
TGI (SR leukemia): 33.3 nM
GI50 (SW-620 colon): < 10 nM
TGI (SW-620 colon): < 10 nM
GI50 (T-47D breast): < 10 nM
TGI (T-47D breast): < 10 nM
GI50 (TK-10 renal): 19.1 nM
TGI (TK-10 renal): 35.7 nM
GI50 (U251 glioblastoma): < 10 nM
TGI (U251 glioblastoma): < 10 nM
GI50 (UACC-257 melanoma): 27.5 nM
TGI (UACC-257 melanoma): 59.6 nM
GI50 (UACC-62 melanoma): 16.5 nM
TGI (UACC-62 melanoma): 34.5 nM
GI50 (UO-31 renal): < 10 nM
TGI (UO-31 renal): < 10 nM
